Among the data in the Deep4Chem optical property database are absorption maximum values, retold here.

A short description of this series: solvent given as SMILES.

Where “and” joins values, the source holds several entries; their conditions need not be identical. Identical values can stand only once.

With `CN1C(=CC2=C([S-])C(=Cc3sc4ccccc4[n+]3C)C2=O)C(C)(C)c2ccccc21`, the absorption maximum (in ClC(Cl)Cl) came out at 661 nm.
Consider `CCCCCCOc1cc(C=O)c(OCCCCCC)cc1C=O`, for which the absorption maximum (in ClCCl) was 403 nm.
As for `CCCCCCn1c2ccccc2c2cc(/C=C/c3cc(=O)oc4cc(C)ccc34)ccc21`, the absorption maximum runs as follows: (in CS(C)=O) 405 nm; (in ClC(Cl)Cl) 393 nm.
Under “in CC#N”, `CC(=O)c1c2c(c(C(C)=O)c3c1OC(CC(=O)O)O3)OCO2` returned an absorption maximum of 433 nm.
With `CCN(CC)c1ccc2c(-c3ccccc3C(=O)O)c3c([o+]c2c1)/C(=C/c1ccc2c(c1)c1ccccc1n2CC)CCC3`, the absorption maximum (in ClCCl) amounted to 646 nm.
For `COC(=O)c1nc2cnc(N(C)C)nc2n1Cc1ccccc1`, the absorption maximum is, setting by setting: (in C1COCCO1) 358 nm; (in CC#N) 359 nm; (in CO) 362 nm; (in ClCCl) 362 nm.
Take `C1=C(c2ccccn2)[Si](c2ccccc2)(c2ccccc2)c2ccccc21`: the absorption maximum (in ClCCl) was found to be 339 nm.
`CCN(CC)c1ccc(-c2cc3c(s2)c(C(=O)OC)cc(=O)n3C)cc1`: the absorption maximum is, setting by setting: (in C1CCOC1) 436 nm; (in CC#N) 436 nm; (in CCO) 444 nm; (in CO) 444 nm; (in CS(C)=O) 446 nm; (in Cc1ccccc1) 434 nm.
Consider `CC1=CC(C)=[N+]2C1=C(c1ccc(-c3c4ccccc4c(-c4ccccc4)c4ccccc34)cc1)c1c(C)cc(C)n1[B-]2(F)F`, for which the absorption maximum (in CC#N) is reported as 499 nm; the absorption maximum (in CCCCCC) was 502 nm; the absorption maximum (in CCO) came to 500 nm; the absorption maximum (in CN(C)C=O) is recorded as 500 nm; the absorption maximum (in Cc1ccccc1) is 504 nm; the absorption maximum (in ClCCl) came out at 502 nm.
Take `COc1ccc(-c2ccc(C(=O)NC(C)(C)C)c3c2ccc2c4ccccc4c4ccccc4c23)cc1`: the absorption maximum (in ClCCl) was 339 nm.
As to `COc1ccc(-c2nc(-c3ccc(-c4nc(-c5ccc(OC)cc5)c(-c5ccc(OC)cc5)[nH]4)cc3)[nH]c2-c2ccc(OC)cc2)cc1`, the absorption maximum (in CC#N) is 330 nm and 365 nm.
For the setting “in CC#N”, `CN(C)c1ccc(C=C2Oc3cccc(O)c3C2=O)cc1` showed an absorption maximum of 449 nm.
Molecule `COc1cc2c(cc1OC)C1=C[C@H](c3ccccc3)C3(C(C#N)=C(C#N)N1CC2)c1cc(Br)ccc1-c1ccc(Br)cc13` yielded an absorption maximum (in ClCCl) of 311 nm.
In the case of `CCCCc1ccc2ccc3cccc4ccc1c2c34`, the absorption maximum by setting is: (in CCCCCC) 338 nm; (in CO) 338 nm; (in ClCCl) 341 nm.
In the case of `Cc1ccc2nc3c(=O)[nH]c(=O)[nH]c3nc2c1`, the absorption maximum was determined as 370 nm (in CC#N) and 368 nm (in ClCCCl).
Where the note is “in C1CCOC1”, `Cc1cc(C)c(C2=C(c3c(C)sc(-c4ccc(-c5nc(-c6ccccc6)c(-c6ccccc6)[nH]5)cc4)c3C)C(F)(F)C(F)(F)C2(F)F)s1` had an absorption maximum of 332 nm.
As to `CCCCCCc1ccc(-n2c3[n+](c4c5ccccc5c5ccccc5c42)[B-](C)(C)c2ccccc2-3)cc1`, the absorption maximum runs as follows: (in C1CCOC1) 359 nm; (in CC#N) 359 nm; (in Cc1ccccc1) 361 nm; (in ClCCl) 361 nm.
Under “in C1CCCCC1”, `CCCC1(CCC)c2cc(-c3ccc4c(c3)C(CCC)(CCC)c3cc(-c5ccc6c(c5)C(CCC)(CCC)c5cc(C(C)(C)CC)ccc5-6)ccc3-4)ccc2-c2ccc(-c3ccc4c(c3)C(CCC)(CCC)c3cc(C(C)(C)CC)ccc3-4)cc21` gave an absorption maximum of 362 nm.
As to `CC(=O)Nc1ccc(C2=C/C(=C\c3ccc(C#N)cc3)C(=O)N2)cc1`, the absorption maximum (in C1COCCO1) is listed as 456 nm.
On to `CN(C)c1ccc(/C=C/c2cc(/C=C/c3ccc(N(C)C)cc3)nc(/C=C/c3ccc(N(C)C)cc3)n2)cc1`, for which the absorption maximum (in ClCCl) was found to be 402 nm.
In turn, `COc1ccc(-c2nc(-c3ccc(C)cc3)c3ccccn23)cc1` returned an absorption maximum (in ClC(Cl)Cl) of 303 nm.
